Data taken from PubChem BioAssay AID2060607 (Molecular Pharmacology Branch, DTP, NCI, 2025).
“And” between values parts separate entries of the source, which are not always exact repeats. Equal entries are not always repeated.

Test system: 876862-298-R-J1-PDC complex spheroids, viability % test/control
Experiment: Anticancer human tumor 876862-298-R-J1-PDC patient-derived endometrial carcinoma cell line growth inhibition [CLK]
Conditions: for viability, T/C: stronger effect = lower value; for IC50: curve of compound
Description: A high-throughput screen of multi-cell type tumor spheroids was designed to identify active combinations of […] and targeted small molecules. Complex spheroids include a stromal component modeled by human endothelial cells (HUVEC) and fibroblasts modeled by human mesenchymal stem cells (MSCs). The concentration ranges selected for each drug and investigational agent were based upon clinically achievable concentrations if the clinical Cmax of the agent was known.
Compounds. The drugs and investigational agents: cirtuvivint (SM08502; NSC835563), CC-671 (NSC850746), vemurafenib (NSC761431), tapotoclax (NSC804041), sotorasib (NSC818433), adagrasib (NSC831453), MRTX-1133 (NSC836407), BAY2416964 (NSC825713), copanlisib (NSC816437), inavolisib (NSC800729), abemaciclib (NSC768073), osimertinib (NSC779217), entinostat (NSC756642), eltanexor (KPT-8602, NSC794443), venetoclax (NSC766270), ceralasertib (NSC777638), bortezomib (NSC756655), olaparib (NSC753686), talazoparib (NSC767125), alisertib (NSC759677), peposertib (NSC802822), gemcitabine (NSC613327), 5-fluorouracil (NSC19893), SN-38 (NSC673596), oxaliplatin (NSC266046), paclitaxel (NSC125973), and doxorubicin (NSC123127), were obtained from the National Cancer Institute (NCI) Developmental Therapeutics Program Chemical Repository. The FDA-approved anticancer drug set is available from the Developmental Therapeutics Program at https://dtp.cancer.gov/organization/dscb/obtaining/available plates.htm. […] The stock solutions were prepared in dimethyl sulfoxide (DMSO, Sigma-Aldrich, St. Louis, MO, cat. D2650), except for the platinum complexes which were prepared in saline (Quality Biological, Gaithersburg, MD, cat. 114-055-101), at 800-fold the tested concentration and stored at -70 degrees C prior to their use. All drugs and investigational agents were tested over a range starting from a high concentration at or near the clinical Cmax and decreasing in half-log increments. If the clinical Cmax for an agent had not been determined, the highest concentration tested was 10 microM.
Cell Culture. All cells were maintained in an incubator at 37 degrees C and 5% CO2 with 95% humidity. The PDC lines were cultured according to standard operating procedures established by the NCI PDMR. Briefly, all PDCs were thawed and cultured in Matrigel-coated flasks prepared with a working solution of 1X Ham's F-12 nutrient mix, without supplementation (Invitrogen, Waltham, MA, cat. 11765054), 100 U/mL penicillin-streptomycin (Invitrogen, cat. 15140122), and 2.5% Matrigel (Corning Inc., Corning, NY, cat. 354248) for the first three passages. The 947758-054-R-J2-PDC line was cultured in 6B/Colon 1A media, which includes advanced DMEM/F-12 (Thermo Fisher Scientific, cat. 12634028), 10 mM HEPES (Thermo Fisher Scientific, cat. 15630080), 1X GlutaMAX supplement (Thermo Fisher Scientific, cat. 35050061), 0.1 mg/mL primocin (InvivoGen, cat. ant-pm-2), 10% defined fetal bovine serum, heat inactivated (HyClone Laboratories Inc., cat. SH30070.03HI), 1.25 mM N-Acetyl-L-cysteine (Sigma-Aldrich, cat. A9165), 10 mM nicotinamide (Sigma-Aldrich, cat. N0636), 1X B-27 supplement (Thermo Fisher Scientific, cat. 17504044), 1X N-2 supplement (Thermo Fisher Scientific, cat. 17502048), and 10 microM Y-27632 dihydrochloride (Tocris Bioscience, cat. 1254). The 876862-298-R-J1-PDC was cultured in 6E media, which includes all 6B/Colon 1A media components plus 50% L-WRN conditioned media (ATCC, cat. CRL-3276), 50 ng/mL recombinant human EGF recombinant protein (hEGF; Thermo Fisher Scientific, cat. PHG0311), 10 ng/mL recombinant human fibroblast growth factor 10 (hGFG-10; PeproTech, cat. 100-26), 1 ng/mL recombinant human fibroblast growth factor 2 (hFGF-2; PeproTech, cat. 100-18B), and 1 µM prostaglandin E2 (PGE2; Tocris, cat. 2296). The 227483-062-R1-J1-PDC line was cultured in Panc media, containing all 6E components except hFGF-2, with the addition of 500 nM SB-431542 (Selleckchem, cat. S1067) and 10 nM gastrin (Tocris, cat. 3006). […]
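Note: spheroids exposed to drugs for 7 days before readout.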
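Throughout, for viability, T/C: 100% = DMSO vehicle control wells.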

| Compound | viability, T/C (compound 0.0316 µM) | viability, T/C (compound 0.1 µM) | viability, T/C (compound 0.316 µM) | viability, T/C (compound 1 µM) | viability, T/C (compound 3.16 µM) | viability, T/C (compound 10 µM) | IC50 | viability, T/C (compound 0.000949 µM) | viability, T/C (compound 0.003 µM) | viability, T/C (compound 0.00949 µM) | viability, T/C (compound 0.03 µM) | viability, T/C (compound 0.0949 µM) | viability, T/C (compound 0.3 µM) | viability, T/C (compound 0.00316 µM) | viability, T/C (compound 0.01 µM) |
| --- | --- | --- | --- | --- | --- | --- | --- | --- | --- | --- | --- | --- | --- | --- | --- |
| C#Cc1c(F)ccc2cc(O)cc(-c3ncc4c(N5CC6CCC(C5)N6)nc(OCC56CCCN5CC(F)C6)nc4c3F)c12 (configuration not stated) | 95.8% and 117% | 100% and 96.1% | 90.8% and 110% | 92.2% and 105% | 103% and 100% | 81.8% and 86.7% | > 10000 nM | – | – | – | – | – | – | – | – |
| C=C(F)C(=O)N1CCN(c2nc(OCC3CCCN3C)nc3c2CCN(c2cccc4cccc(Cl)c24)C3)CC1CC#N (configuration not stated) | 97.6% and 102% | 97.9% and 102% | 92.6% and 96.1% | 102% | 86.3% and 96.5% | 2.35% and 15.5% | 5200 nM and 6130 nM | – | – | – | – | – | – | – | – |
| C=CC(=O)N1CCN(c2nc(=O)n(-c3c(C)ccnc3C(C)C)c3nc(-c4c(O)cccc4F)c(F)cc23)C(C)C1 (configuration not stated) | 95.8% | 97.3% and 99.5% | 102% and 108% | 106% and 103% | 110% and 114% | 94.6% and 83% | > 10000 nM | – | – | – | – | – | – | – | – |
| C=CC(=O)Nc1cc(Nc2nccc(-c3cn(C)c4ccccc34)n2)c(OC)cc1N(C)CCN(C)C | – | – | – | – | – | – | 269 nM and 290 nM | 107% and 103% | 98.7% and 109% | 100% and 103% | 96.7% and 88.7% | 81% and 82.2% | 46.5% and 48.2% | – | – |
| CC(C)CC(NC(=O)C(Cc1ccccc1)NC(=O)c1cnccn1)B(O)O (configuration not stated) | – | – | – | – | – | – | 1.99 nM and 1.64 nM | 116% and 88.5% | 13.2% and 7.38% | 0.57% and 0.51% | 0.45% and 0.53% | 0.3% and 0.59% | 0.2% and 0.9% | – | – |
| CC(CO)NC(=O)c1cc(-c2ccc(Cl)cc2)nn(-c2cnn(C)c2)c1=O (configuration not stated) | 85% and 116% | 92.3% and 95.9% | 79.3% and 80.6% | 88.4% and 76.2% | 71.6% and 78.7% | 56% and 64.9% | > 10000 nM | – | – | – | – | – | – | – | – |
| CC(Nc1ccc2c(c1)OCCn1cc(N3C(=O)OCC3C(F)F)nc1-2)C(N)=O (configuration not stated) | 105% and 86.6% | 81.8% and 90.4% | 76.5% and 68.3% | 72.2% and 51.6% | 48.5% and 38.3% | 27.7% and 22.8% | 2840 nM and 1210 nM | – | – | – | – | – | – | – | – |
| CC1(C)CCC(CN2CCN(c3ccc(C(=O)NS(=O)(=O)c4ccc(NCC5CCOCC5)c([N+](=O)[O-])c4)c(Oc4cnc5[nH]ccc5c4)c3)CC2)=C(c2ccc(Cl)cc2)C1 | 102% and 88.4% | 92% and 101% | 105% and 99.1% | 102% and 106% | 111% and 121% | 18.4% and 14.2% | 6490 nM and 6290 nM | – | – | – | – | – | – | – | – |
| CC1COCCN1c1cc(C2(S(C)(=N)=O)CC2)nc(-c2ccnc3[nH]ccc23)n1 (configuration not stated) | 110% and 102% | 99.5% and 104% | 89.4% and 94.8% | 77.1% and 79.5% | 55% and 44% | 27% and 18.8% | 3890 nM and 2620 nM | – | – | – | – | – | – | – | – |
| CCCS(=O)(=O)Nc1ccc(F)c(C(=O)c2c[nH]c3ncc(-c4ccc(Cl)cc4)cc23)c1F | 111% and 94.9% | 107% and 108% | 108% and 97.3% | 100% and 110% | 91.8% and 83.4% | 43.5% and 39.1% | 8630 nM and 7530 nM | – | – | – | – | – | – | – | – |
| CCN1CCN(Cc2ccc(Nc3ncc(F)c(-c4cc(F)c5nc(C)n(C(C)C)c5c4)n3)nc2)CC1 | 86.5% and 84.8% | 68.3% and 76.1% | 52.7% and 61.5% | 46.3% and 48.5% | – | – | 483 nM and 891 nM | – | – | – | – | – | – | 91.2% and 109% | 86.9% and 101% |
